The test system of data set [1] is Heliothis virescens. Put plainly: Effect on Heliothis virescens caterpillars. The conditions noted are these: 400 ppm spray on soya plants, first-instar larvae, six days. It counts as in vivo. The method, then: Young soya plants are sprayed with an aqueous emulsion spray mixture containing 400 ppm of active ingredient. After drying of the spray deposit, the soya plants are colonised with 10 first-instar larvae of Heliothis virescens and placed in a plastic container. Six days later they are evaluated. The percentage reduction of the population and percentage reduction in feeding damage (% response) is determined by comparing the number of dead larvae and the extent of feeding damage on the treated plants with those on the untreated plants.

Another data set relates to Aonidiella aurantii. Put plainly: Effect against Aonidiella aurantii. It counts as in vivo. The conditions noted are these: 400 ppm, potato tubers immersed, 10 to 12 weeks. The method, then:
Potato tubers are colonised with crawlers of Aonidiella aurantii. After about 2 weeks, the potatoes are immersed in an aqueous emulsion or suspension spray mixture containing 400 ppm of active ingredient. After the tubers have dried off, they are incubated in a plastic container. Evaluation is effected 10 to 12 weeks later by comparing the survival rate of the crawlers of the first secondary generation of the treated population with that of untreated control batches.

Data set [2] has as its system Tetranychus urticae. Briefly: Effect against Tetranychus urticae. It counts as in vivo. The conditions noted are these: 400 ppm spray on bean plants, mixed population, 6 days at 25° C. The method, then: Young bean plants are colonised with a mixed population of Tetranychus urticae and, one day later, are sprayed with an aqueous emulsion spray mixture containing 400 ppm of active ingredient. The plants are subsequently incubated for 6 days at 25° C. and then evaluated. The percentage reduction of the population (% response) is determined by comparing the total number of dead eggs, larvae, and adults on the treated plants with those on the untreated plants.

The test system of the next data set is Blattella germanica. Briefly: Effect against Blattella germanica. The format is in vivo. The following applies: application rate of 2 g/m^2, nymphs exposed 2 hours, evaluated after 48 hours. The method, then:
Sufficient acetonic solution (0.1%) of the active ingredient is added to a Petri dish for the quantity thereof to correspond to an application rate of 2 g/m^2. When the solvent has evaporated, 20 nymphs of Blattella germanica (last nymph stage) are placed in the dish and exposed to the action of the test substance for 2 hours. The nymphs are then anaesthetised with CO2, added to a fresh Petri dish and kept in the dark at 25° and 50 to 70% humidity. After 48 hours, the insecticidal effect is evaluated by determining the mortality rate.

A further data set relates to Nilaparvata lugens. Put plainly: Effect against Nilaparvata lugens. It counts as in vivo. The conditions noted are these: 400 ppm spray on rice plants, second and third instar larvae, 21 days. The method, then:
Rice plants are sprayed with an aqueous emulsion spray mixture containing 400 ppm of active ingredient. After the spray coating has dried on, the rice plants are colonised with second and third instar larvae of plant and leaf-hoppers. 21 days later they are evaluated. The percentage reduction of the population (% response) is determined by comparing the number of surviving plant and leaf-hoppers on the treated plants with those on the untreated plants.

Another data set has as its system Anthonomus grandis. Briefly: Effect against Anthonomus grandis. It counts as in vivo. The following applies: 400 ppm spray on cotton plants, adults, three days. The method, then:
Young cotton plants are sprayed with an aqueous emulsion spray mixture containing 400 ppm of active ingredient. After the spray coating has dried on, the cotton plants are colonised with 10 adult Anthonomus grandis and placed in a plastic container. Three days later they are evaluated. The percentage reduction of the population and of the feeding damage (% response) is determined by comparing the total number of dead beetles and the feeding damage on the treated plants with those on the untreated plants.

The subject of a further data set is Diabrotica balteata. Briefly: Effect on Diabrotica balteata larvae. It counts as in vivo. The conditions noted are these: 400 ppm spray on corn seedlings, second instar larvae, six days. The method, then:
Corn seedlings are sprayed with an aqueous emulsion spray mixture containing 400 ppm of active ingredient. After drying of the spray deposit, the corn seedlings are colonised with 10 second instar larvae of Diabrotica balteata and placed in a plastic container. Six days later they are evaluated. The percentage reduction of the population (% response) is determined by comparing the number of dead larvae on the treated plants with those on the untreated plants.

Another data set deals with Dermanyssus gallinae. Put plainly: Comparative in vitro effect on Dermanyssus gallinae. The method, then:
15 fed adult female mites of the genus Dermanyssus gallinae fixed on a plastic adhesive film are brought into contact with 50 μl of an aqueous suspension or emulsion of the test substance. The test is carried out with concentrations of 32, 10, 3.2, 1.0, 0.32 to 0.1 ppm. After drying, the film is stuck onto a glass disc. This creates a kind of air bubble around each mite, the lower surface of which is formed by the glass disc and the upper surface by a bulging of the adhesive film. This bubble contains sufficient air for the mite to avoid suffocating. After 5 days, the effect of the test substance is evaluated with the aid of a stereo-microscope by assessing the effect on mortality, egg deposition, egg quality, hatching rate, pupation rate, and development of protonymphs according to the following 4 criteria:
1. if 9 to 10 mites are dead, this indicates a lethal effect (M);
3. if 2 or more mites survive and produce eggs, but no larvae hatch from these eggs and no protonymphs develop, this indicates a development-inhibiting effect (H);
4. if 2 or more mites survive and lay the usual number of normal eggs, from which larvae hatch and develop into protonymphs, this indicates no activity.

The subject of data set [3] is Tetranychus urticae. Briefly: Ovicidal effect on Tetranychus urticae. The format is in vivo. The following applies: 400 ppm spray on bean plants colonised with eggs, 6 days at 25° C. The method, then:
Young bean plants are colonised with females of Tetranychus urticae, which are removed again after 24 hours. The plants colonised with eggs are sprayed with an aqueous emulsion spray mixture containing 400 ppm of active ingredient. The plants are incubated for 6 days at 25° C. and then evaluated. The percentage reduction of the population (% response) is determined by comparing the total number of dead eggs, larvae, and adults on the treated plants with those on the untreated plants.

Data set [4] relates to Heliothis virescens. Put plainly: Ovicidal effect on Heliothis virescens. The following applies: 400 ppm in acetone/water, eggs on filter paper immersed, after 6 days. It counts as in vivo. The method, then:
Eggs of Heliothis virescens deposited on filter paper are immersed briefly in a test solution comprising 400 ppm of the active ingredient to be tested in acetone/water. After the test solution has dried, the eggs are incubated in Petri dishes. After 6 days, the percentage hatching rate of the eggs is compared with that for untreated controls (% reduction in hatching rate).

Another data set relates to Bemisia tabaci. Put plainly: Effect against Bemisia tabaci. It counts as in vivo. The following applies: 400 ppm spray on dwarf bean plants with nymphs, after a further 14 days. From the text: Dwarf bean plants are placed in gauze cages and colonised with adults of Bemisia tabaci. Following oviposition, all adults are removed. Ten days later, the plants and the nymphs thereon are sprayed with an aqueous emulsion spray mixture containing 400 ppm of the active ingredient. After a further 14 days, the percentage hatching rate of the eggs is compared with that of untreated controls.

For the compound `Fc1cccc(F)c1C1=NC(c2ccc(-c3ccc(C(F)(F)F)cc3)cc2)CO1` (single isomer, unassigned) [1.1, 2-(2,6-difluoro-phenyl)-4-(4′-trifluoromethylbiphenyl-4-yl)-4,5-dihydro-oxazole], the “percentage reduction of the population and percentage reduction in feeding damage (% response)” value in the data set with Heliothis virescens [1] is on record as “more than 80%”. Also, the “response (survival rate of the crawlers of the first secondary generation vs untreated)” value in the data set on Aonidiella aurantii is listed as “more than 80%”. For the same compound, the “percentage reduction of the population (% response)” value in the data set with Tetranychus urticae [2], with Nilaparvata lugens, in the data set on Diabrotica balteata and in the data set on Tetranychus urticae [3] was “more than 80%” each time. In the data set on Blattella germanica, the “mortality rate (response)” value is listed as “more than 80%”. Moreover, the “percentage reduction of the population and of the feeding damage (% response)” value in the data set with Anthonomus grandis is on record as “more than 80%”. In addition, the “concentration that completely inhibits the development of protonymphs” value with Dermanyssus gallinae (after 5 days) is on record as ≤ 0.0064 ppm. Further, in the data set on Dermanyssus gallinae (at the EC100 of the same table line, listed as Enantiomer A), the Type of activity was determined as 1. The “EC100 (minimum dosage to reach 100% mortality)” value in the data set with Dermanyssus gallinae (fed adult female mites, evaluated after 5 days, listed as Enantiomer A) turned out to be 0.0064 ppm. Further, the “activity relative to enantiomer B” value with Dermanyssus gallinae (ratio of EC100) is recorded as 3000-5000 times. The “activity relative to the racemate” value in the data set with Dermanyssus gallinae (ratio of EC100) was “more than 30 times”. For the same compound, in the data set on Heliothis virescens [4], the “% reduction in hatching rate (response)” value is reported as “more than 80%”. Besides, the “response (percentage hatching rate of the eggs vs untreated controls)” value with Bemisia tabaci is “more than 80%”.

These data come from patent US20020137781A1, “Preparation and use of enantiomer-pure 2,4-disubstituted oxazolines” (priority 1999, published 2002).
